Test: xn = mol fraction of the nth substance listed
Conditions: for electrical conductivity: 101 kPa; for viscosity: 100 kPa

CCCCCCCCCCCC[N+](C)(C)Cc1ccccc1.[Cl-] + CC(C)C[C@H](N)C(=O)O + O
electrical conductivity [S/m]
Conditions	293.15 K	298.15 K	303.15 K	308.15 K	313.15 K
x2 = 0.001798, x1 = 0.0001441	0.0541	0.0606	0.0671	0.074	0.0811
x2 = 0.001798, x1 = 0.0001691	0.061	0.068	0.0755	0.0833	0.0918
x2 = 0.001798, x1 = 0.0001949	0.0661	0.0738	0.0821	0.0911	0.101
x2 = 0.001798, x1 = 0.0002208	0.0704	0.0788	0.0879	0.0977	0.108
x2 = 0.001798, x1 = 0.0002443	0.0741	0.0832	0.0928	0.103	0.116
x2 = 0.001798, x1 = 0.0002664	0.0776	0.0872	0.0975	0.109	0.122
x2 = 0.001798, x1 = 0.0002864	0.0807	0.0908	0.102	0.114	0.127
x2 = 0.001798, x1 = 0.0003052	0.0838	0.0941	0.106	0.118	0.132
x2 = 0.001798, x1 = 0.0003239	0.0872	0.0976	0.11	0.123	0.137
x2 = 0.001799, x1 = 5.649e-05	0.0231	0.0258	0.0287	0.0317	0.0346
x2 = 0.001799, x1 = 7.89e-05	0.0314	0.035	0.0389	0.0428	0.0469
x2 = 0.001799, x1 = 9.986e-05	0.0387	0.0435	0.0482	0.0532	0.0582
x2 = 0.001799, x1 = 0.0001206	0.0462	0.0518	0.0574	0.0633	0.0693
x2 = 0.008927, x1 = 0.0002331	0.0722	0.0806	0.0896	0.0994	0.11
x2 = 0.008927, x1 = 0.0002565	0.0758	0.0847	0.0944	0.105	0.117
x2 = 0.008927, x1 = 0.0002782	0.079	0.0883	0.0986	0.11	0.122
x2 = 0.008927, x1 = 0.0002981	0.0818	0.0918	0.102	0.115	0.127
x2 = 0.008927, x1 = 0.0003168	0.0845	0.0949	0.106	0.119	0.132
x2 = 0.008927, x1 = 0.0003371	0.0874	0.0983	0.11	0.123	0.137
x2 = 0.008928, x1 = 0.0001252	0.0463	0.0518	0.0574	0.0633	0.0692
x2 = 0.008928, x1 = 0.0001513	0.0552	0.0616	0.0682	0.075	0.082
x2 = 0.008928, x1 = 0.000179	0.0627	0.0698	0.0773	0.0853	0.0937
x2 = 0.008928, x1 = 0.000207	0.068	0.0757	0.084	0.093	0.103
x2 = 0.008929, x1 = 5.804e-05	0.0225	0.0252	0.028	0.031	0.0339
x2 = 0.008929, x1 = 7.973e-05	0.0302	0.0339	0.0376	0.0414	0.0454
x2 = 0.008929, x1 = 0.0001014	0.038	0.0425	0.0472	0.0519	0.0568

C[N+](C)(C)CCO.NCC(=O)[O-] + CO
viscosity [mPa·s]
Conditions	x1 = 0.1002	x1 = 0.2001	x1 = 0.2997	x1 = 0.4004	x1 = 0.4994	x1 = 0.6	x1 = 0.6997	x1 = 0.8001	x1 = 0.9	x1 = 1
298.15 K	2.3	6.55	15.49	34.55	64.1	108.4	170.2	260	369	501
303.15 K	2.08	5.72	13.06	28.31	50.8	84	128.3	193.9	269	363
308.15 K	1.89	5.03	11.1	23.47	40.9	66.3	99.9	146.7	201	264
313.15 K	1.73	4.47	9.55	19.74	33.58	53.4	78.9	111.5	153.5	201
318.15 K	1.58	3.98	8.28	16.74	27.95	45.2	62.8	89.7	118.8	154.5
323.15 K	1.46	3.57	7.27	14.32	23.49	37.8	51.2	71.9	94.3	121.1

— the CheMixHub ionic liquid set
